Experimental data: patent US8017321B2, “Gefitinib sensitivity-related gene expression and products and methods related thereto” (The Regents of the University of Colorado, A Body Corporate, priority 2005, dated 2011)

Experiments:
A549 NSCLC xenografts = assay: Athymic nude mice bearing human NSCLC xenografts (FIG. 5); format: in vivo
Source text: FIG. 5 is a line graph showing the effects of gefitinib on A549 NSCLC xenografts.

NSCLC = conditions: chemo-refractory advanced stage NSCLC, phase II clinical trials; cited from earlier work

COc1cc2ncnc(Nc3ccc(F)c(Cl)c3)c2cc1OCCCN1CCOCC1 [ZD 1839, gefitinib]
tumor growth of NSCLC xenografts after treatment (A549 NSCLC xenografts; listed as ZD1839): Growth delay was evident
tumor growth of NSCLC xenografts after treatment (A549 NSCLC xenografts; listed as gefitinib): inhibitory effect
patients responding to treatment (NSCLC): 11-20%
